Legend:
[1] = test system: DLD1 NRF2-GOF; conditions: 72 h; CellTiter-Glo viability
Outline: (§1)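 Cells grown in DMEM with 10% FBS were isogenic DLD1 colorectal cancer lines, NRF2 wild-type or CRISPR gain-of-function. In 384-well plates they received library compounds at 5 concentrations over a 10,000-fold range for 72 h before CellTiter-Glo readout on a Pherastar FS reader, normalised to vehicle wells and 100-μM positive-control wells. Dose-response fits used a four-parameter logistic model, from which EC50 and drug sensitivity score, a normalised area under the curve, were obtained.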

[2] = test system: DLD1 NRF2-WT; conditions: 72 h; CellTiter-Glo viability
Outline: as §1

[3] = test system: DLD1 NRF2-GOF; assay: drug sensitivity score (DSS) viability (DSS score); higher = more sensitive; extreme values may be limits of the assay; conditions: 72 h; CellTiter-Glo viability
Outline: as §1

[4] = test system: DLD1 NRF2-WT; assay: as above; conditions: 72 h; CellTiter-Glo viability
Outline: as §1

[5] = test system: DLD1 NRF2-GOF; assay: drug sensitivity score (DSS) cytotoxicity (DSS score); higher = more toxic; extreme values may be limits of the assay; conditions: 72 h; CellTox Green cytotoxicity
Outline: (§2)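 After growth in DMEM with 10% FBS, NRF2 wild-type and CRISPR-edited isogenic DLD1 cells were seeded in 384-well plates and given library compounds at 5 concentrations across a 10,000-fold range. Fluorescence from CellTox Green was taken on a Pherastar FS reader after 72 h and normalised against vehicle wells and 100-μM positive-control wells. From logistic dose-response fits of cytotoxicity came the TC50 and the drug sensitivity score, a normalised area under the curve.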

[6] = test system: DLD1 NRF2-WT; assay: as above; conditions: 72 h; CellTox Green cytotoxicity
Outline: as §2

[7] = test system: DLD1 NRF2-GOF; assay: TC50 cytotoxicity; higher = less toxic; conditions: 72 h; CellTox Green cytotoxicity
Outline: as §2

[8] = test system: DLD1 NRF2-WT; assay: TC50 cytotoxicity; higher = less toxic; conditions: 72 h; CellTox Green cytotoxicity
Outline: as §2

In the case of `CC(C)Oc1ccc(-c2nn([C@@H](C)c3oc4ccc(F)cc4c(=O)c3-c3cccc(F)c3)c3ncnc(N)c23)cc1F` [TGR-1202], the EC50 viability [1] is reported as > 2500 nM, the EC50 viability [2] is reported as > 2500 nM and the drug sensitivity score [3] is reported as 0. For the same molecule, the drug sensitivity score [4] was 0, the drug sensitivity score [5] was 0 and the drug sensitivity score [6] was 0. For the same molecule, the TC50 cytotoxicity [7] was > 2500 nM and the TC50 cytotoxicity [8] was > 2500 nM.
For `C=CC[C@@H]1/C=C(\C)C[C@H](C)C[C@H](OC)[C@H]2O[C@@](O)(C(=O)C(=O)N3CCCC[C@H]3C(=O)O[C@H](/C(C)=C/[C@@H]3CC[C@@H](O)[C@H](OC)C3)[C@H](C)[C@@H](O)CC1=O)[C@H](C)C[C@@H]2OC` [Tacrolimus], the EC50 viability [1] was 844 nM, the EC50 viability [2] was 933 nM and the drug sensitivity score [3] was 5. For the same molecule, the drug sensitivity score [4] was 4.5, the drug sensitivity score [5] was 0 and the drug sensitivity score [6] was 0. For the same molecule, the TC50 cytotoxicity [7] was > 10000 nM and the TC50 cytotoxicity [8] was > 10000 nM.
For `C[C@@H](C(=O)O)c1ccc(-c2ccccc2)c(F)c1` [Tarenflurbil], the EC50 viability [1] was > 10000 nM, the EC50 viability [2] was > 10000 nM and the drug sensitivity score [3] was 0. The drug sensitivity score [4] was 0, the drug sensitivity score [5] was 0 and the drug sensitivity score [6] was 0. For the same molecule, the TC50 cytotoxicity [7] was > 10000 nM and the TC50 cytotoxicity [8] was > 10000 nM.
With `Cc1nc(-c2cn3c(n2)-c2ccc(-c4cnn(C(C)(C)C(N)=O)c4)cc2OCC3)n(C(C)C)n1` [Taselisib] the EC50 viability [1] was > 1000 nM, the EC50 viability [2] was 11.7 nM and the drug sensitivity score [3] was 0.9. It also gave a drug sensitivity score [4] of 5.5, a drug sensitivity score [5] of 0 and a drug sensitivity score [6] of 0.4. For the same molecule, the TC50 cytotoxicity [7] was > 1000 nM and the TC50 cytotoxicity [8] was > 1000 nM.
In the case of `COc1cccc2c1c(O)c(C(=O)N(C)c1ccc(C(F)(F)F)cc1)c(=O)n2C` [Tasquinimod], the EC50 viability [1] is reported as > 10000 nM, the EC50 viability [2] is reported as > 10000 nM and the drug sensitivity score [3] is reported as 1.2. For the same molecule, the drug sensitivity score [4] was 1.8, the drug sensitivity score [5] was 0 and the drug sensitivity score [6] was 0. For the same molecule, the TC50 cytotoxicity [7] was > 10000 nM and the TC50 cytotoxicity [8] was > 10000 nM.
With `CN1CCC(COc2cnc(-c3cccc(Cn4nc(-c5cccc(C#N)c5)ccc4=O)c3)nc2)CC1` [Tepotinib] the EC50 viability [1] was > 1000 nM, the EC50 viability [2] was > 1000 nM and the drug sensitivity score [3] was 0. It also gave a drug sensitivity score [4] of 0, a drug sensitivity score [5] of 0 and a drug sensitivity score [6] of 0. The TC50 cytotoxicity [7] was > 1000 nM and the TC50 cytotoxicity [8] was > 1000 nM.
`COc1cc2c(Nc3ccc(Cl)c(Cl)c3F)ncnc2cc1OC[C@@H]1C[C@@H]2CN(C)C[C@@H]2C1` [Tesevatinib] was tested, and the EC50 viability [1] was 425 nM, the EC50 viability [2] was 167 nM and the drug sensitivity score [3] was 1.2. The drug sensitivity score [4] was 5.1, the drug sensitivity score [5] was 0 and the drug sensitivity score [6] was 0.1. For the same molecule, the TC50 cytotoxicity [7] was > 1000 nM and the TC50 cytotoxicity [8] was > 1000 nM.
Work on `Nc1nc2[nH]cnc2c(=S)[nH]1` [Thioguanine] yielded an EC50 viability [1] of 1290 nM, an EC50 viability [2] of 3500 nM and a drug sensitivity score [3] of 9.4. It also gave a drug sensitivity score [4] of 4.4, a drug sensitivity score [5] of 0 and a drug sensitivity score [6] of 0.2. The TC50 cytotoxicity [7] was > 10000 nM and the TC50 cytotoxicity [8] was > 10000 nM.
For `O=C1NC(=O)[C@@H](c2cn3c4c(cccc24)CCC3)[C@@H]1c1c[nH]c2ccccc12` [Tivantinib], the EC50 viability [1] was 242 nM, the EC50 viability [2] was 164 nM and the drug sensitivity score [3] was 5. It also gave a drug sensitivity score [4] of 6.7, a drug sensitivity score [5] of 0.9 and a drug sensitivity score [6] of 1.4. For the same molecule, the TC50 cytotoxicity [7] was > 1000 nM and the TC50 cytotoxicity [8] was > 1000 nM.
`COc1cc2nccc(Oc3ccc(NC(=O)Nc4cc(C)on4)c(Cl)c3)c2cc1OC` [Tivozanib] was tested, and the EC50 viability [1] was 3590 nM, the EC50 viability [2] was 3040 nM and the drug sensitivity score [3] was 2.3. It also gave a drug sensitivity score [4] of 3.1, a drug sensitivity score [5] of 4.5 and a drug sensitivity score [6] of 2.3. It also gave a TC50 cytotoxicity [7] of 2640 nM and a TC50 cytotoxicity [8] of 2920 nM.
In the case of `CC[C@@]1(O)C(=O)OCc2c1cc1n(c2=O)Cc2cc3c(CN(C)C)c(O)ccc3nc2-1` [Topotecan], the EC50 viability [1] is reported as 1090 nM, the EC50 viability [2] is reported as 1500 nM and the drug sensitivity score [3] is reported as 9.2. For the same molecule, the drug sensitivity score [4] was 8.1, the drug sensitivity score [5] was 1.9 and the drug sensitivity score [6] was 3.1. The TC50 cytotoxicity [7] was 3390 nM and the TC50 cytotoxicity [8] was 2200 nM.
In the case of `CN(C)CCOc1ccc(/C(=C(/CCCl)c2ccccc2)c2ccccc2)cc1` [Toremifene], the EC50 viability [1] is reported as 2140 nM, the EC50 viability [2] is reported as 4210 nM and the drug sensitivity score [3] is reported as 4.8. For the same molecule, the drug sensitivity score [4] was 2.2, the drug sensitivity score [5] was 0 and the drug sensitivity score [6] was 0. The TC50 cytotoxicity [7] was > 10000 nM and the TC50 cytotoxicity [8] was > 10000 nM.
`CC1=C(/C=C/C(C)=C/C=C/C(C)=C/C(=O)O)C(C)(C)CCC1` [Tretinoin] showed an EC50 viability [1] of 96.5 nM, an EC50 viability [2] of 1 nM and a drug sensitivity score [3] of 12.1. It also gave a drug sensitivity score [4] of 17.7, a drug sensitivity score [5] of 0 and a drug sensitivity score [6] of 0. The TC50 cytotoxicity [7] was > 10000 nM and the TC50 cytotoxicity [8] was > 10000 nM.
`O=c1[nH]c(=O)n([C@H]2C[C@H](O)[C@@H](CO)O2)cc1C(F)(F)F` [Trifluridine] was tested, and the EC50 viability [1] was 2510 nM, the EC50 viability [2] was > 10000 nM and the drug sensitivity score [3] was 2.2. For the same molecule, the drug sensitivity score [4] was 0, the drug sensitivity score [5] was 0 and the drug sensitivity score [6] was 0. For the same molecule, the TC50 cytotoxicity [7] was > 10000 nM and the TC50 cytotoxicity [8] was > 10000 nM.
Molecule `CN1CCc2c(c3ccccc3n2Cc2ccc(C(=O)NO)cc2)C1` [Tubastatin A] has an EC50 viability [1] of 1560 nM, an EC50 viability [2] of 295 nM and a drug sensitivity score [3] of 4.1. The drug sensitivity score [4] was 4, the drug sensitivity score [5] was 0 and the drug sensitivity score [6] was 0. The TC50 cytotoxicity [7] was > 10000 nM and the TC50 cytotoxicity [8] was > 10000 nM.
In the case of `CC(C)Nc1cc(-c2c[nH]c(C(=O)N[C@H](CO)c3cccc(Cl)c3)c2)c(Cl)cn1` [Ulixertinib], the EC50 viability [1] is reported as 1140 nM, the EC50 viability [2] is reported as 1470 nM and the drug sensitivity score [3] is reported as 6.3. It also gave a drug sensitivity score [4] of 6.1, a drug sensitivity score [5] of 0 and a drug sensitivity score [6] of 0. The TC50 cytotoxicity [7] was > 10000 nM and the TC50 cytotoxicity [8] was > 10000 nM.
`CC[C@@H]1CN(C(=O)NCC(F)(F)F)C[C@@H]1c1cnc2cnc3[nH]ccc3n12` [Upadacitinib] was tested, and the EC50 viability [1] was 10.1 nM, the EC50 viability [2] was > 10000 nM and the drug sensitivity score [3] was 10.7. The drug sensitivity score [4] was 0, the drug sensitivity score [5] was 0 and the drug sensitivity score [6] was 0. The TC50 cytotoxicity [7] was > 10000 nM and the TC50 cytotoxicity [8] was > 10000 nM.
With `Cn1ncc(Cl)c1-c1cc(C(=O)N[C@H](CN)Cc2ccc(F)c(F)c2)oc1Cl` [Uprosertib] the EC50 viability [1] was > 10000 nM, the EC50 viability [2] was > 10000 nM and the drug sensitivity score [3] was 0. The drug sensitivity score [4] was 3.4, the drug sensitivity score [5] was 0 and the drug sensitivity score [6] was 0. The TC50 cytotoxicity [7] was > 10000 nM and the TC50 cytotoxicity [8] was > 10000 nM.
`CNC(=O)c1ccccc1Nc1cc(Nc2ccc(N3CCOCC3)cc2OC)ncc1C(F)(F)F` [VS-4718] gave an EC50 viability [1] of 1600 nM, an EC50 viability [2] of 1940 nM and a drug sensitivity score [3] of 4.7. The drug sensitivity score [4] was 4.3, the drug sensitivity score [5] was 0 and the drug sensitivity score [6] was 0. The TC50 cytotoxicity [7] was > 10000 nM and the TC50 cytotoxicity [8] was > 10000 nM.

Source: the supplement of paper PMC7600603
